Marks after values point to notes of the source that are not given here.
Assays:
[1] = Plasma pharmacokinetics of SU5416 and its metabolites; type: in vivo, human; conditions: for half-life: human, plasma, iv
[2] = Phase I dose escalation: dose-limiting toxicity, MTD and adverse events; conditions: human, in vivo
[3] = ref [11]; cited from earlier work
[4] = adults, interval between successive doses less than 7 days; ref [20]; cited from earlier work
[5] = tested on: refractory pediatric central nervous system tumors; test: Tumor response by neuro-imaging; type: in vivo, human
[6] = adults with solid tumors, ref [16], [18], [23]–[25], [30], cited from earlier work
CYP3A4 = conditions: ref [33], [39]; cited from earlier work
[7] = Stratum I (no EIACD), SU5416 110 mg/m^2 IV, week 1, 13 patients, mean ± SD
[8] = Stratum I (no EIACD), SU5416 110 mg/m^2 IV, week 6, 10 patients, mean ± SD
[9] = Stratum I (no EIACD), SU5416 145 mg/m^2 IV, week 1, 6 patients, mean ± SD
[10] = Stratum I (no EIACD), SU5416 145 mg/m^2 IV, week 6, 3 patients, mean ± SD
[11] = Stratum I (no EIACD), all SU5416 doses IV, week 1, 19 patients, mean ± SD
[12] = Stratum I (no EIACD), all SU5416 doses IV, week 6, 13 patients, mean ± SD
[13] = Stratum II (EIACD), SU5416 35 mg/m^2 IV, week 1, 1 patient
[14] = Stratum II (EIACD), SU5416 48 mg/m^2 IV, week 1, 2 patients, mean ± SD
[15] = Stratum II (EIACD), SU5416 65 mg/m^2 IV, week 1, 6 patients, mean ± SD
[16] = Stratum II (EIACD), all SU5416 doses IV, week 1, 9 patients, mean ± SD
[17] = Stratum I (no EIACD), 110 mg/m^2 IV, week 1, 13 patients, mean ± SD
[18] = Stratum I (no EIACD), 110 mg/m^2 IV, week 6, 10 patients, mean ± SD
[19] = Stratum I (no EIACD), 145 mg/m^2 IV, week 1, 6 patients, mean ± SD
[20] = Stratum I (no EIACD), 145 mg/m^2 IV, week 6, 3 patients, mean ± SD
[21] = Stratum I (no EIACD), all doses IV, week 6, 13 patients, mean ± SD
[22] = Stratum II (EIACD), 35 mg/m^2 IV, week 1, 1 patient
[23] = Stratum II (EIACD), 48 mg/m^2 IV, week 1, 2 patients, mean ± SD
[24] = Stratum II (EIACD), 65 mg/m^2 IV, week 1, 6 patients, mean ± SD
[25] = Stratum II (EIACD), all doses IV, week 1, 9 patients, mean ± SD

Which “Relative extent of metabolism (%), AUC(0-t) metabolite/parent: SU9838” value [1, 7] does the source give for `Cc1cc(CO)[nH]c1/C=C1\C(=O)Nc2ccccc21` [SU9838] here?
Its value is 3.95 ± 1.59%.

And the “Relative extent of metabolism (%), AUC(0-t) metabolite/parent: SU9838” value [1, 8]?
The value was 4.41 ± 2.28%.

What about the “Relative extent of metabolism (%), AUC(0-t) metabolite/parent: SU9838” value [1, 9] of the same molecule?
The value was 3.98 ± 2.13%.

What about the “Relative extent of metabolism (%), AUC(0-t) metabolite/parent: SU9838” value [1, 10] of the same molecule?
Its value is 5.24 ± 0.81%.

And the “Relative extent of metabolism (%), AUC(0-t) metabolite/parent: SU9838” value [1, 11]?
Its value is 3.96 ± 1.68%.

And the “Relative extent of metabolism (%), AUC(0-t) metabolite/parent: SU9838” value [1, 12]?
The value was 4.59 ± 2.11%.

What about the “Relative extent of metabolism (%), AUC(0-t) metabolite/parent: SU9838” value [1, 13] of the same molecule?
The value was 2.44%.

What about the “Relative extent of metabolism (%), AUC(0-t) metabolite/parent: SU9838” value [1, 14] of the same molecule?
Its value is 4.07 ± 1.37%.

What about the “Relative extent of metabolism (%), AUC(0-t) metabolite/parent: SU9838” value [1, 15] of the same molecule?
Its value is 5.72 ± 3.41%.

And the “Relative extent of metabolism (%), AUC(0-t) metabolite/parent: SU9838” value [1, 16]?
Its value is 4.82 ± 2.69%.

What does the source list for `Cc1cc(C(=O)O)[nH]c1C=C1C(=O)Nc2ccccc21` [SU6595]?
Relative extent of metabolism (%), AUC(0-t) metabolite/parent: SU6595 [1, 7]: 57.4 ± 36.4%; Relative extent of metabolism (%), AUC(0-t) metabolite/parent: SU6595 [1, 8]: 72.9 ± 43.9%; Relative extent of metabolism (%), AUC(0-t) metabolite/parent: SU6595 [1, 9]: 37.4 ± 25.3%; Relative extent of metabolism (%), AUC(0-t) metabolite/parent: SU6595 [1, 10]: 72.4 ± 26.1%; Relative extent of metabolism (%), AUC(0-t) metabolite/parent: SU6595 [1, 11]: 50.1 ± 33.2%; Relative extent of metabolism (%), AUC(0-t) metabolite/parent: SU6595 [1, 12]: 72.8 ± 39.1%; Relative extent of metabolism (%), AUC(0-t) metabolite/parent: SU6595 [1, 13]: 55.2%; Relative extent of metabolism (%), AUC(0-t) metabolite/parent: SU6595 [1, 14]: 26.4 ± 1.1%; Relative extent of metabolism (%), AUC(0-t) metabolite/parent: SU6595 [1, 15]: 57.3 ± 20.4%; Relative extent of metabolism (%), AUC(0-t) metabolite/parent: SU6595 [1, 16]: 48.1 ± 21.3%

With `Cc1cc(C)c(/C=C2\C(=O)Nc3ccccc32)[nH]1` [SU5416, semaxanib] as the molecule, how does the “most serious drug-related toxicities” value [2] read?
Its value is “grade 3 liver enzyme abnormalities, arthralgia and hallucinations”.

What about the “CL (total body clearance)” value [1, 17] of the same molecule?
The value was 28.7 ± 12.8 ^a liter/h/m^2.

And the “Vz (apparent volume of distribution)” value [1, 17]?
Its value is 43.3 ± 20.3 liter/m^2.

And the “CL (total body clearance)” value [1, 18]?
Its value is 38.0 ± 28.7 liter/h/m^2.

And the “Vz (apparent volume of distribution)” value [1, 18]?
The value was 65.5 ± 26.7 liter/m^2.

And the “CL (total body clearance)” value [1, 19]?
The value was 21.3 ± 11.5 liter/h/m^2.

And the “Vz (apparent volume of distribution)” value [1, 19]?
The value was 39.1 ± 24.8 liter/m^2.

What about the “CL (total body clearance)” value [1, 20] of the same molecule?
The value was 26.1 ± 17.1 liter/h/m^2.

And the “Vz (apparent volume of distribution)” value [1, 20]?
The value was 37.2 ± 33.5 liter/m^2.

And the “CL (total body clearance)” value [1, 21]?
Its value is 34.9 ± 24.9 liter/h/m^2.

What about the “Vz (apparent volume of distribution)” value [1, 21] of the same molecule?
The value was 57.5 ± 34.6 liter/m^2.

And the “CL (total body clearance)” value [1, 22]?
Its value is 33.1 liter/h/m^2.

What about the “Vz (apparent volume of distribution)” value [1, 22] of the same molecule?
Its value is 23.5 liter/m^2.

And the “CL (total body clearance)” value [1, 23]?
The value was 48.0 ± 5.1 liter/h/m^2.

What about the “Vz (apparent volume of distribution)” value [1, 23] of the same molecule?
Its value is 74.3 ± 71.7 liter/m^2.

And the “CL (total body clearance)” value [1, 24]?
The value was 27.8 ± 11.4 liter/h/m^2.

What about the “Vz (apparent volume of distribution)” value [1, 24] of the same molecule?
Its value is 45.5 ± 26.7 liter/m^2.

And the “CL (total body clearance)” value [1, 25]?
The value was 32.0 ± 13.1 liter/h/m^2.

What about the “Vz (apparent volume of distribution)” value [1, 25] of the same molecule?
The value was 47.1 ± 30.6 liter/m^2.

And the half-life ([1]; 48 mg/m2, t1/2,z (terminal phase half-life), Stratum II (EIACD), 48 mg/m^2 IV, week 1, 2 patients, mean ± SD)?
The half-life was 64.2 ± 54 min.

What about the half-life ([1]; 65 mg/m2, t1/2,z (terminal phase half-life), Stratum II (EIACD), 65 mg/m^2 IV, week 1, 6 patients, mean ± SD) of the same molecule?
Its half-life is 67.8 ± 37.2 min.

And the “penetration into the CSF” value [3]?
Its value is “does not penetrate the CSF”.

What about the “increase of clearance upon repeated administration” value [4] of the same molecule?
Its value is “more than 50%”.

What about the “Stable Disease Duration (months)” value ([5]; Pt 1, Glioblastoma Multiforme, Spinal Cord) of the same molecule?
The value was 5.3 months.

What about the “Change from baseline (%)” value ([5]; Pt 1, Glioblastoma Multiforme, tumor size, 1.4 months from treatment) of the same molecule?
Its value is 0%.

What about the “Stable Disease Duration (months)” value ([5]; Pt 3, Choroid Plexus Carcinoma, Cerebrum) of the same molecule?
Its value is 14.3 months.

And the Tumor size ([5]; Pt 8, Glioblastoma Multiforme, FLAIR, 2.7 months from treatment, baseline 32.7)?
Its Tumor size is 35.5 cm^3.

What about the Tumor size ([5]; Pt 8, Glioblastoma Multiforme, FLAIR, 8.1 months from treatment, baseline 32.7) of the same molecule?
The Tumor size was 29.1 cm^3.

What about the Tumor size ([5]; Pt 8, Glioblastoma Multiforme, FLAIR, 9.7 months from treatment, baseline 32.7) of the same molecule?
The Tumor size was 23.9 cm^3.

And the Tumor size ([5]; Pt 8, Glioblastoma Multiforme, FLAIR, 11.1 months from treatment, baseline 32.7)?
Its Tumor size is 30.5 cm^3.

And the Tumor size ([5]; Pt 8, Glioblastoma Multiforme, FLAIR, 15.9 months from treatment, baseline 32.7)?
Its Tumor size is 28.9 cm^3.

And the “Stable Disease Duration (months)” value ([5]; Pt 8, Glioblastoma Multiforme, Parietal lobe)?
The value was 15.9 months.

And the “Stable Disease Duration (months)” value ([5]; Pt 19, Astrocytoma, Anaplastic, Frontal lobe)?
The value was 10.6 months.

And the Tumor size ([5]; Pt 26, Astrocytoma, NOS, Enhancement, 2.6 months from treatment, baseline 28.1)?
The Tumor size was 31.9 cm^2.

And the Tumor size ([5]; Pt 26, Astrocytoma, NOS, Enhancement, 4.4 months from treatment, baseline 28.1)?
The Tumor size was 34.7 cm^2.

What about the Tumor size ([5]; Pt 26, Astrocytoma, NOS, Enhancement, 5.9 months from treatment, baseline 28.1) of the same molecule?
The Tumor size was 34.7 cm^2.

What about the “Stable Disease Duration (months)” value ([5]; Pt 26, Astrocytoma, NOS, Supratentorial) of the same molecule?
Its value is 5.9 months.

And the “Radiographic response after course 1: CR or PR (number of patients)” value ([5]; Stratum I, 16 evaluable)?
Its value is 0.

And the “Radiographic response after course 1: PD (number of patients)” value ([5]; Stratum I, 16 evaluable)?
The value was 10.

And the “Radiographic response after course 1: PD (percent of evaluable patients)” value ([5]; Stratum I, 16 evaluable)?
Its value is 63%.

And the “Radiographic response after course 1: SD (number of patients)” value ([5]; Stratum I, 16 evaluable)?
Its value is 6.

What about the “Radiographic response after course 1: SD (percent of evaluable patients)” value ([5]; Stratum I, 16 evaluable) of the same molecule?
The value was 38%.

What about the “patients with sustained (prolonged) stable disease of possible clinical benefit” value ([5]; Stratum I, patients evaluable for response) of the same molecule?
Its value is 4 of 16.

And the “Radiographic response after course 1: CR or PR (number of patients)” value ([5]; Stratum II, 6 evaluable)?
The value was 0.

What about the “Radiographic response after course 1: PD (number of patients)” value ([5]; Stratum II, 6 evaluable) of the same molecule?
The value was 5.

What about the “Radiographic response after course 1: PD (percent of evaluable patients)” value ([5]; Stratum II, 6 evaluable) of the same molecule?
The value was 83%.

And the “Radiographic response after course 1: SD (number of patients)” value ([5]; Stratum II, 6 evaluable)?
Its value is 1.

What about the “Radiographic response after course 1: SD (percent of evaluable patients)” value ([5]; Stratum II, 6 evaluable) of the same molecule?
Its value is 17%.

And the objective responses ([5]; either stratum)?
The objective responses was “No objectives responses”.

What about the MTD in adults ([6]; intravenously twice weekly) of the same molecule?
The MTD in adults was 145 mg/m^2.

And the “Dose-limiting toxicities in adults” value [6]?
Its value is “headache, nausea, and vomiting”.

And the “role of CYP3A4 in elimination of SU5416” value (CYP3A4)?
The value was “major isozyme catalyzing the initial oxidation”.

Source: paper PMC2775441 (Pediatric blood & cancer, 2009)
